Experimental data taken from patent publication US20240075036A1, “THERAPEUTIC COMBINATIONS INCLUDING INHIBITORS OF THE P2X4 RECEPTOR FOR TREATING AND PREVENTING PROLIFERATIVE DISORDERS” (CHEMOTHERAPEUTISCHES FORSCHUNGSINSTITUT GEORG-SPEYER-HAUS, priority 2021, published 2024).
Residues, ends and D or L forms follow the SMILES beside them. *: point of attachment. Cbz = O=C(OCc1ccccc1)*; CH2F = FC*

What was measured:
[1] = system: subcutaneous AOM/DSSATKN tumors; type: in vivo, NSG mice
[2] = system: Lgr5EGFP-DTR(+) tumor organoids; experiment: Tumor organoid survival / cell death upon treatment with or without DT; type: cell-based, mice
From the text: Representative images are shown from at least three independent experiments. c, Average tumor size was counted on serial hematoxylin and eosin (H&E) stained sections on day 9 after 4 injections of either DT or vehicle. Data are mean±SD, n≥8/treatment. p>0.05 (n.s., not significant) by two-tailed Student's t-test. d, Immunohistochemical analysis and quantification of Lgr5-EGFP expression in GFP-stained colon tumor from Lgr5EGFP-DTR(+) mice on day 9 treated with DT as indicated in a). Representative images are shown (n≥8/treatment, scale bar=300 μm). […] Representative images are shown from four independent experiments (n=4/treatment, scale bar=200 μm). Data represent mean±SD, n=4/treatment. p>0.05 (n.s., not significant) by two-tailed Student's t-test. f, Flow cytometric analysis of Lgr5-EGFP+tumor cells from Lgr5EGFP-DTR(+) tumor organoids 24 h after DT treatment. Representative results are shown (n≥3). g, AOM/DSS colon tumor organoids from Lgr5EGFP-DTR(−) and Lgr5EGFP-DTR(+) mice were treated with DT (20 ng/ml) for 24 h. Representative images are shown from two independent experiments (scale bar=200 μm). h, Immunoblot analysis of Lgr5EGFP-DTR(+) and Lgr5EGFP-DTR(−) tumor organoids treated with DT for 24 h. […] 1, Control and raptor knockdown Lgr5EGFP-DTR(+) tumor organoids were passaged and counted after 72 h. […]

HCT-116 cells = settings: combination of SAMC and rapamycin; cited from earlier work
[3] = system: S6 ribosomal protein phosphorylation (mTOR signaling); experiment: Immunoblot analysis of survival pathways / S6 phosphorylation in AOM/DSS tumor organoids; type: cell-based, mice; settings: for ATP induced phosphorylation of S6: ATP (100 μM) in presence of inhibitor, AOM/DSS tumor organoids
Description: Data are mean±SD, n=7. *p<0.05 by two-tailed Student's t-test. c, Immunoblot analysis of Lgr5EGFP-DTR(−) tumor organoids treated with ATP (100 μM), 2MeS ADP (100 μM) and adenosine (100 μM) for 30 min. […] Data are mean±SD, n=4 replicates. […] Data are mean±SD, n=3 replicates. One representative of three experiment performed is shown. n.s. p>0,05, *p<0.05***, p<0.001, ****p<0.0001 by 1-way ANOVA with Bonferroni's multiple comparison test. 1, Immunoblot analysis of doxycycline inducible P2x4 knockdown APTAK colon tumor organoids treated with 5-FU (20 μM). Organoids were cultured in medium−/+doxycycline prior to the experiment. […] Organoids were cultured in medium−/+doxycycline prior to the experiment. […] Data are mean±SD, n=3.
In vitro Lgr5+ cells ablation experiments, organoids were treated with 20 ng/ml DT (Millipore, #322326) in the culture medium. For human LGR5+ cells ablation, we treated LGR5-iCT organoids with 500 nM BB homodimerizer. Other treatments were performed as described in each figure legends.

[4] = system: AOM/DSSATKN tumor organoids; settings: for rescue of organoid reseeding capacity under 5-FU/rapamycin: inhibitor of potential proapoptotic DAMPs added to 5-FU (20 μM) plus rapamycin (10 μM), 48 hours, re-seeded 72 h
From the text: Percentage of reseeding capacity compared to vehicle treated organoids is indicated. Data are mean±SD, n=4 replicates. […] Percentage of reseeding capacity compared to vehicle treated organoids is indicated.

[5] = system: subcutaneous APTAKshP2x4 tumors; experiment: Subcutaneous APTAKshP2x4 tumors, 5-FU/rapamycin with or without NAC; type: in vivo, mice; settings: additional application of NAC (0,5% in drinking water)
Description: (§1) Data are mean±SD, n=3. […] Data are mean±SD, n=3.
Organoids were collected using ice cold Cell Recovery Solution (Corning, #354253) and mechanically dissociated into small clusters. Dissociated organoid cells were resuspended in PBS, admixed with 50% Matrigel (Corning, #356231) in a final volume of 100 μl, and injected subcutaneously in the right flank of NSG mice. Tumor size was monitored with a digital caliper and tumor volumes were calculated according to the formula (length×width×width)/2. At the end of experiments mice were humanely euthanized to collect tumors.
DT (Millipore, #322326) treatment was performed as previously described (3, 4). Briefly, DT was injected intraperitonially at a dose of 50 μg/kg for the time indicated in individual experiments. mTOR inhibitor rapamycin (LC Labs, #-5000) was dissolved in 5% Ethanol, 5% PEG400 and 5% Tween 80 in PBS and injected i.p. at 10 mg/kg once a day for indicated time. 0.5% N-acetylcysteine (Sigma-Aldrich, #A91165) was applied ad libitum in drinking water. 0.5 mg/ml Doxycycline (Sigma #D9891) was applied ad libitum in drinking water containing 3% Sucrose. 5-FU (Sigma #F6627) was dissolved in sterile H2O and injected intraperitoneally for the time indicated in individual experiments at a concentration of 20 mg/kg.

[6] = system: S6 ribosomal protein phosphorylation, DNA damage and apoptosis markers
[7] = system: human colon organoids derived from tumor tissue; experiment: ROS measurement with DCFDA in organoids; type: cell-based; settings: 5-FU (20 μM, 20 h)
Description: as §1
ATP level in organoid supernatant or necrotic medium was measured using the CellTiter-Glo 2.0 Cell Viability Assay (Promega #G9242) according to the manufacturers instruction. ROS levels were measured using H2DCFDA (ThermoFisher #D339). Briefly, organoids were treated as indicated with 5-FU, stained with H2DCFDA and then analyzed for H2DCFDA positivity using fluorescence microscopy or FACS.

APTAK tumor organoids = experiment: APTAK tumor organoids: S6 phosphorylation and organoid survival; type: cell-based, mice; settings: 5-FU
Description: Organoids were cultured in medium−/+doxycycline prior to the experiment. […] Organoids were cultured in medium−/+doxycycline prior to the experiment.
Colon tumor organoids were cultured as previously described (27). AOM/DSS induced colon tumors were harvested by opening the colon longitudinally and dissociated enzymatically for 30-40 min in digestion media containing 1 mg/ml collagenase I (Sigma-Aldrich), 0.5 mg/ml Dispase (Roche), 50 μg/ml DNase (Sigma-Aldrich) in RPMI medium containing 2% FCS. Supernatant was washed and filtered through a 70 μM cell strainer. Cells were then embedded in Matrigel (Corning, #356231) and cultured in Advanced Dulbecco's modified Eagle's medium/F12 (Invitrogen, #12634-028) supplemented with Glutamax (Invitrogen, #35050038), Hepes (Invitrogen, #15630056), Pen/Strep (Invitrogen, #15140122), N2 supplement (Invitrogen, #17502048), B27supplement (Invitrogen, #17504044) and n-Acetylcysteine (Sigma-Aldrich, #A91165). EGF (Invitrogen, #PMG8045), RspoI and noggin were added as niche factor.

PC3 and C4-2B4 cells = settings: selective P2XR4 antagonists; cited from earlier work
[8] = system: S6 phosphorylation in intestinal epithelial cells (IEC); experiment: S6 phosphorylation in intestinal epithelial cells of wildtype mice; type: in vivo; settings: azoxymethane (10 mg/kg single injection), untransformed wildtype mice
Description: as §1
Immunostaining was performed as previously described (35). Briefly, tissues were fixed with 4% paraformaldehyde. Six μm OCT frozen tissue sections or 5 μm paraffin-embedded tissue sections were processed for immunostaining using a standard histological protocol. Following primary antibodies were used: EGFP (Abcam, #ab6673), tdTomato (Rockland, #600-401-379), cleaved caspase 3 (Cell Signaling, #9579), Ki67 (Leica Bioststems, #NCL-L-Ki67-MM1), phospho-S6 (Cell Signaling, #2211),P2x4 (Abcam #134559). Sections were then incubated with HRPconjugated antibodies (Dako) and signal was detected with DAB reaction. For immunofluorescence staining after primary antibody incubation, sections were incubated with flourochrome-labelled secondary antibodies (Invitrogen) and sections were mounted with ProLong Gold Antifade Mountant with DAPI (Invitrogen, #P36931). Images were captured on a Zeiss microscope.

[9] = system: refractory metastatic colorectal cancer / refractory solid tumors; settings: further addition of panitumumab to everolimus + mFOLFOX6; cited from earlier work

NC(=O)c1ncn([C@@H]2O[C@H](CO)[C@@H](O)[C@H]2O)c1O [mizoribine]
S6-ribosomal protein phosphorylation ([1]; mizoribine in combination with DT-mediated depletion of Lgr5+ cells): without affecting S6-ribosomal protein phosphorylation | viable proliferative tumor cells ([1]; mizoribine in combination with DT-mediated depletion of Lgr5+ cells, s.c. tumors): markedly reduced viable proliferative | organoid collapse ([2]; mizoribine in combination with DT-mediated depletion of Lgr5+ cells, ex vivo): profound organoid collapse

C=CCSSC[C@H](N)C(=O)O [SAMC, S-allylmercapto-cysteine]
tumor suppression (HCT-116 cells): enhanced tumor-suppressing ability

Apyrase
S6 phosphorylation induced by DT treatment or necrotic supernatant ([3]; Apyrase hydrolyzing released ATP): reduce the levels of S6 phosphorylation

Anakinra: IL-1 signaling inhibitor
rescue of organoid reseeding capacity under 5-FU/rapamycin [4]: only inhibition of ROS signaling by NAC was able to rescue

CC(=O)N[C@@H](CS)C(=O)O [NAC, N-acetylcysteine]
tumor regression in 5-FU/rapamycin treated mice [5]: revert tumor regression | apoptosis in tumor tissues (cleaved Caspase 3) ([1]; NAC (0,5% in drinking water) in DT/rapamycin treated animals): reduced apoptosis in tumor tissues | DNA damage and apoptosis in tumor organoids ([6]; NAC (2 mM) in addition to DT and rapamycin, compared to DT/rapamycin alone): decreased DNA damage and apoptosis

Nc1nc2c(ncn2[C@@H]2O[C@@H]3COP(=O)(O)O[C@H]4[C@@H](O)[C@H](n5cnc6c(N)ncnc65)O[C@@H]4COP(=O)(O)O[C@@H]2[C@@H]3O)c(=O)[nH]1 [cGAMP]
phosphorylation of S6-ribosomal protein ([3]; exogenous cGAMP): induced phosphorylation of S6-ribosomal protein in a dose dependent manner

O=c1[nH]cc(F)c(=O)[nH]1 [5-FU, 5-fluorouracil]
ROS levels (DCFDA) [7]: tumor organoid specific ROS increase | S6 phosphorylation (APTAK tumor organoids): led to mTOR dependent S6 phosphorylation | phosphorylation of S6 ([3]; 5-FU, absence of Lgr5+ cells (Noggin withdrawal)): able to induce phosphorylation of S6 | S6 phosphorylation ([6]; 5-FU (20 μM, 24 hours), AOM/DSS tumor tissues and tumor organoids): induced S6 phosphorylation

Clc1cccc(-c2nnnn2Cc2cccnc2)c1Cl [A-438079]
ATP induced phosphorylation of S6 [3]: did not decrease ATP dependent S6 phosphorylation

Enbrel
rescue of organoid reseeding capacity under 5-FU/rapamycin [4]: only inhibition of ROS signaling by NAC was able to rescue

Cc1nc(N=Nc2ccc(S(=O)(=O)O)cc2S(=O)(=O)O)c(COP(=O)(O)O)c(C=O)c1O [PPADS]
Lgr5+ cell death induced S6 phosphorylation ([3]; non-selective P2 receptor antagonists): blocked Lgr5+ cell death induced S6 phosphorylation

CNC(=O)c1ccc(C)c(-n2c(C)cc(OCc3ccc(F)cc3F)c(Br)c2=O)c1 [PH797804]
tumor organoid survival ([2]; MAPK inhibitor (JNK or p38) in the presence or absence of DT): did not affect tumor organoid survival

COC(=O)C[C@H](NC(=O)[C@H](C)NC(=O)[C@@H](NC(=O)OCc1ccccc1)C(C)C)C(=O)CF [zVAD, carbobenzoxy-valyl-alanyl-aspartyl-[O-methyl]-fluoromethyl ketone] (Cbz-Val-Ala-Asp(OMe)-CH2F)
organoid survival under combined 5-FU/rapamycin treatment ([4]; apoptosis inhibitor zVAD (50 μM) added): rescued the negative effect of combined 5-FU/rapamycin treatment on organoid survival

Cc1ccc(S(=O)(=O)N2c3ccccc3Oc3ccccc32)cc1 [PSB-12062]
growth, mobility and apoptosis of PCa cells (PC3 and C4-2B4 cells): impaired the growth and mobility of PCa cells but not apoptosis

CN=[N+](C)[O-] [azoxymethane]
S6 phosphorylation in IEC [8]: enhanced S6 phosphorylation in IEC

Nc1ncnc2c1ncn2[C@@H]1O[C@H](COP(=O)(O)OP(=O)(O)OP(=O)(O)O)[C@@H](O)[C@H]1O [ATP, adenosine triphosphate]
phosphorylation of S6-ribosomal protein ([3]; Lgr5EGFP-DTR(−) tumor organoids, 100 μM, 30 min): induced phosphorylation of S6-ribosomal protein

O=C(Nc1ccc(C(=O)Nc2ccc(C(=O)Nc3ccc(S(=O)(=O)O)c4cc(S(=O)(=O)O)cc(S(=O)(=O)O)c34)cc2)cc1)Nc1ccc(C(=O)Nc2ccc(C(=O)Nc3ccc(S(=O)(=O)O)c4cc(S(=O)(=O)O)cc(S(=O)(=O)O)c34)cc2)cc1 [NF279]
ATP induced phosphorylation of S6 [3]: did not decrease ATP dependent S6 phosphorylation

panitumumab: added to everolimus + mFOLFOX6 in phase I trial
toxicity [9]: unacceptable level of toxicity
